Read-outs that look alike come from different tables or passages of the source.
Tests used:
[1] = system: cytokinin-dependent tobacco callus Nicotiana tabacum L. cv. Wisconsin 38; experiment: Plant cell division: growth of cytokinin-dependent tobacco callus; format: cell-based; conditions: for Activity (%); (s.d.): relative activity at concentration with highest activity, 10^−6 M kinetin set at 100%; for Concentration with highest activity (mol/l): tobacco callus fresh weight increase after four weeks, tested 10^−8 M to 10^−4 M
Protocol: Cytokinin-dependent tobacco callus Nicotiana tabacum L. cv. Wisconsin 38 was maintained at 25° C. in darkness on modified MS medium, containing 4 μmol/l nicotinic acid, 2.4 μmol/l pyridoxine hydrochloride, 1.2 μmol/l thiamine, 26.6 μmol/l glycine, 1.37 μmol/l glutamine, 1.8 μmol/l myo-inositol, 30 g/l of sucrose, 8 g/l of agar, 5.37 μmol/l NAA and 0.5 μmol/l BAP. Subcultivation was carried out every three weeks. Fourteen days before the bioassay, the callus tissue was transferred to the media without BAP. Biological activity was determined from the increase in fresh callus weight after four weeks of cultivation. Five replicates were prepared for each cytokinin concentration and the entire test was repeated twice. From the obtained data, the concentration with highest activity was selected for each compound tested. Relative activity at this concentration was calculated (see Table 17 below). The activity obtained for 10^−6 M kinetin (Kin) was set as 100%.
The cytokinins to be tested were dissolved in dimethylsulfoxide (DMSO) and the solution brought up to 10^−3M with distilled water.

[2] = system: normal diploid fibroblasts BJ; experiment: In vitro cytotoxic activity (Calcein AM), BJ; format: cell-based, human; conditions: 72 hours, read-out: Cell line tested/IC50 (μmol/L) BJ
Description: (§1) Because toxic compounds negatively influence metabolic processes of cells, many standard cytotoxicity assays are based on measurement of metabolisation rate of various artificial substrates. Resulting product is then quantified, for example, by means of spectrometry. The assays can be easily modified for use in 96-well plates. For evaluation of cytotoxicity of the […] of this invention, a microtiter assay based on quantification of metabolisation of Calcein AM was used. The assay is widely used in drug screening programs and in chemosensitivity testing. In live cells, Calcein AM is enzymatically hydrolysed and accumulation of resulting calcein is manifested by green fluorescence.
(§2) The following human cell lines were used for routine screening of the compounds: normal diploid fibroblasts BJ, T-lymphoblastic leukemia cell line CEM, promyelocytic leukemia cell line HL-60, erytroid leukemia cell line K-562, breast carcinoma cell line MCF-7, osteosarcoma cell line HOS and melanoma cell line G-361. The cells were maintained in Nunc/Corning 80 cm^2 plastic tissue culture flasks and cultured in cell culture medium (DMEM with 5 g/l glucose, 2 mM glutamine, 100 U/ml penicillin, 100 mmg/ml streptomycin, 10% fetal calf serum and sodium bicarbonate). The cell suspensions were prepared and diluted according to the particular cell type and the expected target cell density (2.500-30.000 cells per well based on cell growth characteristics) and pipetted (80 μl) into 96-well plates. Inoculates were allowed a pre-incubation period of 24 hours at 37° C. and 5% CO2 for stabilization. Tested compound was added in total volume of 20 μl of water at time zero. Usually, test compound was evaluated at six 3-fold dilutions. In routine testing, the highest concentration tested was 100 μM, but it could have been adjusted because of limited solubility of a compound. All drug concentrations were tested in triplicates.
(§3) Incubations of cells with the test compounds lasted for 72 hours at 37° C., in 5% CO2 atmosphere and 100% humidity. At the end of incubation period Calcein AM in PBS was added into final concentration of 1 μg/ml. After another 1 hour of incubation fluorescence (FD) was measured with the Labsystem FIA Reader Fluoroscan Ascent (UK). Growth inhibition (GI) was estimated using the following equitation: GI=(mean FDdrug exposed wells−mean FDblank)/(mean FDcontrol wells−mean FDblank)×100%. The GI50 value, the drug concentration causing 50% reduction of Calcein AM conversion, was calculated from the obtained dose response curves.

[3] = system: T-lymphoblastic leukemia cell line CEM; experiment: In vitro cytotoxic activity (Calcein AM), CEM; format: cell-based, human; conditions: 72 hours, read-out: Cell line tested/IC50 (μmol/L) CEM
Description: as §1, §2, §3

[4] = system: erytroid leukemia cell line K-562; experiment: In vitro cytotoxic activity (Calcein AM), K-562; format: cell-based, human; conditions: read-out: Cell line tested/IC50 (μmol/L) K-562
Description: as §1, §2, §3

[5] = system: breast carcinoma cell line MCF-7; experiment: In vitro cytotoxic activity (Calcein AM), MCF-7; format: cell-based, human; conditions: read-out: Cell line tested/IC50 (μmol/L) MCF7
Description: as §1, §2, §3

[6] = system: osteosarcoma cell line HOS; experiment: In vitro cytotoxic activity (Calcein AM), HOS; format: cell-based, human; conditions: 72 hours, read-out: Cell line tested/IC50 (μmol/L) HOS
Description: as §1, §2, §3

melanoma cell line G-361 = experiment: In vitro cytotoxic activity (Calcein AM), G-361; format: cell-based, human; conditions: read-out: Cell line tested/IC50 (μmol/L) G-361
Description: as §1, §2, §3

[7] = system: Human diploid fibroblast BJ; experiment: In vitro cytotoxic activity (MTT); format: cell-based; conditions: 72 hours incubation; concentration causing 20% decrease in mitochondrial dehydrogenase activity
Protocol: MTT (metabolic tetrazolium toxicity) assay is a standard colorimetric assay for evaluation of cytotoxicity. Mitochondrial dehydrogenase activity converts yellow MTT into violet formazan which is measured by means of spectrometry.
Human diploid fibroblast BJ (passage 18-22) were seeded into 96-well plate (5.000 cells per well). After 6 hours cultivation medium (DMEM with 5 g/l glucose, 2 mM glutamine, 100 U/ml penicillin, 100 mmg/ml streptomycin, 10% fetal calf serum and sodium bicarbonate) was replaced with the cultivation medium containing test compounds in concentration range of 0-200 µM. Highest concentration was adjusted if the solubility of the compound was limiting. Every concentration was tested in pentaplicate. MTT was added to the cells after 72 hours incubation (final concentration 0.5 mg/ml) and incubation continued for another 3 hours. MTT was solubilised by DMSO and absorbance at 570 nm was measured. Growth inhibition (GI) was estimated using the following equitation: GI=(mean A drug exposed wells−mean Ablank/mean Acontrol wells−mean Ablank)×100%. The GI20 value, the drug concentration causing 20% decrease in mitochondrial dehydrogenase activity, was calculated from the obtained dose response curves.

[8] = system: Salmonella typhimurium histidien auxotrophs TA98 and TA100; experiment: Ames test; format: cell-based; conditions: 2.5 to 5000 μg/plate; presence and absence of Aroclor-induced rat liver S9
Protocol: A number of tests related to the safety of have been carried out using conventionally accepted protocols and procedures. The results of these studies are summarized herein. Tests were carried out using DMSO as solvent and dose levels of compound 21, 24, 26, 27, 39, 41, 45, 48, 50, 52, 53, 54, 55, 56, 63, 64, 66, 67, 68, 69, 70, 71, 72, 74, 76, 124, 125, 126, 127, 128, 129, 130, 145, 146, 147, 149, 150, 151, 208, 216, 218 a 243 at 2.5, 5.0, 15, 50, 500, 1500, and 5000 μg/plate based upon standard protocol and procedures (Ames et al., Mutation Research, 31, 347-364 (1975); Maron et al., Mutation Research, 113, 173-215 (1983)).

Structure (SMILES)	Activity (%); (s.d.) [1]	IC50 ([2]; Homo sapiens, Fibroblast) [µmol/L]	IC50 ([3]; Homo sapiens) [µmol/L]	IC50 ([4]; Homo sapiens, K562, 72 hours) [µmol/L]	IC50 ([5]; Homo sapiens, MCF7, 72 hours) [µmol/L]	IC50 ([6]; Homo sapiens) [µmol/L]	IC50 (melanoma cell line G-361; Homo sapiens, G-361, 72 hours) [µmol/L]	GI20 [7] [µM]	Concentration with highest activity (mol/l) [1]	IC50 [2] [µmol/L]	IC50 [3] [µmol/L]	IC50 ([4]; 72 hours) [µmol/L]	IC50 ([5]; 72 hours) [µmol/L]	IC50 [6] [µmol/L]	IC50 (melanoma cell line G-361; 72 hours) [µmol/L]	mutagenic response [8]
CC(C)=CCNc1ncnc2c1nc(Cl)n2C1CCCCO1 (stereo not shown) [Compound 3, 8-Chloro-6-(3-methylbut-2-en-1-ylamino)-9-(tetrahydropyran-2-yl)-9H-purine]	118 (±6) %	> 50	> 50	> 50	> 50	> 50	> 50	>50								
CC(C)=CCNc1ncnc2c1nc(Br)n2C1CCCCO1 (stereo not shown) [Compound 23, 8-Bromo-6-(3-methylbut-2-en-1-ylamino)-9-(tetrahydropyran-2-yl)-9H-purine]	125 (±7) %	> 50	> 50	> 50	> 50	> 50	> 50	>100								
CC(C)=CCNc1ncnc2c1nc(Cl)n2C1CCCO1 (stereo not shown) [Compound 65]	127 (±9) %							>100	10^−6-10^−4 mol/l	> 50	> 50	> 50	> 50	> 50	> 50	
COc1nc2c(NCc3ccccc3)ncnc2n1C1CCCCO1 (stereo not shown) [Compound 125]	104 (±2) %							>100	10^−6-10^−4 mol/l	> 50	> 50	> 50	> 50	> 50	> 50	no positive mutagenic responses
COc1nc2c(NC/C=C(\C)CO)ncnc2n1C1CCCCO1 (stereo not shown) [Compound 126, (E)-6-(4-Hydroxy-3-methylbut-2-en-1-ylamino)-8-methoxy-9-(tetrahydropyran-2-yl)-9H-purine]	116 (±6) %	> 50	> 50	> 50	> 50	> 50	> 50	>100								no positive mutagenic responses
COc1nc2c(NCC=C(C)C)ncnc2n1C1CCCCO1 (stereo not shown) [Compound 127, 8-Methoxy-6-(3-methylbut-2-en-1-ylamino)-9-(tetrahydropyran-2-yl)-9H-purine]	114 (±6) %	> 50	> 50	> 50	> 50	> 50	> 50	>100								no positive mutagenic responses
COc1cccc(CNc2ncnc3c2nc(OC)n3C2CCCCO2)c1 (stereo not shown) [Compound 128]	121 (±5) %							>100	10^−6-10^−5 mol/l	> 50	> 50	> 50	> 50	> 50	> 50	no positive mutagenic responses
COc1nc2c(NCc3cccc(O)c3)ncnc2n1C1CCCCO1 (stereo not shown) [Compound 129]	111 (±4) %							>100	10^−6-10^−5 mol/l	> 50	> 50	> 50	> 50	> 50	> 50	no positive mutagenic responses
COc1nc2c(NCC=C(C)C)ncnc2n1C1CCCO1 (stereo not shown) [Compound 207]	114 (±3) %							>100	10^−6-10^−4 mol/l	> 50	> 50	> 50	> 50	> 50	> 50	
COc1cccc(CNc2ncnc3c2nc(OC)n3C2CCCO2)c1 (stereo not shown) [Compound 209]	112 (±4) %							>100	10^−6-10^−4 mol/l	> 50	> 50	> 50	> 50	> 50	> 50	
